Source: US20150344540A1, “NOVEL GLP-1 RECEPTOR AGONISTS WITH CHOLESTEROL EFFLUX ACTIVITY” (NOVO NORDISK A/S, priority 2012, published 2015)
Like-named read-outs stand apart in the source and are kept apart here. Where a SMILES comes first, the peptide text is derived from it. [ ]: non-standard residue; d: D form. Aib = CC(C)(N)C(=O)O

Experiments:
[1] = system: Mouse monocyte/macrophage cell line, RAW 264.7; test: Cholesterol efflux assay (3H-cholesterol, macrophage cell line); type: cell-based; settings: RAW 264.7, 4 hrs incubation, 0.1% human serum albumin; for 4 h Cholesterol Efflux Emax: ABCA1-mediated efflux; for EC50: read-out: 4 h Cholesterol Efflux EC50, ABCA1-mediated efflux (CPT-cAMP induced minus non-induced)
human GLP-1 receptor = human GLP-1 receptor (Homo sapiens, UniProt P43220); test: Functional GLP-1 receptor assay, in vitro potency (CRE luciferase; whole cells); type: cell-based
[2] = GLP1R CRE luc 1% HSA EC50 Mean Value, BHK cells expressing human GLP-1 receptor, 1% HSA
[3] = BHK cells expressing human GLP-1 receptor, 0% HSA, read-out: GLP1R CRE luc 0% HSA EC50 Mean Value
[4] = GLP1R CRE luc 1% HSA EC50 Mean Value

human GLP-1 receptor, sequence (P43220 24-463): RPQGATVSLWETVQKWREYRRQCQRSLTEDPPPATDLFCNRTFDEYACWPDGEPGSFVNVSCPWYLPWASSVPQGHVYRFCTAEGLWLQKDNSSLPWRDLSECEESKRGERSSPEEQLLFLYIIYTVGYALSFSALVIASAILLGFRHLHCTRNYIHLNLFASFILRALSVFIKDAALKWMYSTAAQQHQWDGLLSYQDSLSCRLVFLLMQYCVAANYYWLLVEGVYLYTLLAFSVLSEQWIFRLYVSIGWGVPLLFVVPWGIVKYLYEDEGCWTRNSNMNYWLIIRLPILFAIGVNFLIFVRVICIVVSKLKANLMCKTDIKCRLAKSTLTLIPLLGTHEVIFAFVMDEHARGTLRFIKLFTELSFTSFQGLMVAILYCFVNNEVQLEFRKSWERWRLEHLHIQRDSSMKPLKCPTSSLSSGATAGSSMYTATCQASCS

Row | EC50 (human GLP-1 receptor; [2]) [nM] | EC50 (human GLP-1 receptor; [3]) [nM] | Molecule | 4 h Cholesterol Efflux Emax [1] [%] | EC50 [1] [nM] | EC50 (human GLP-1 receptor; [4]) [nM] | EC50 (human GLP-1 receptor; GLP1R CRE luc 0% HSA EC50 Mean Value) [nM]
1 | 0.039 | 0.163 | CC[C@H](C)[C@H](NC(=O)[C@H](Cc1ccccc1)NC(=O)[C@H](CCC(=O)O)NC(=O)[C@H](CCCCN)NC(=O)[C@@H](NC(=O)[C@H](C)NC(=O)[C@H](CCC(=O)O)NC(=O)CNC(=O)[C@H](CCC(=O)O)NC(=O)[C@H](CC(C)C)NC(=O)[C@H](Cc1ccc(O)cc1)NC(=O)[C@H](CO)NC(=O)[C@H](CO)NC(=O)[C@@H](NC(=O)[C@H](CC(=O)O)NC(=O)[C@H](CO)NC(=O)[C@@H](NC(=O)[C@H](Cc1ccccc1)NC(=O)[C@@H](NC(=O)CNC(=O)[C@H](CCC(=O)O)NC(=O)C(C)(C)NC(=O)[C@@H](N)Cc1c[nH]cn1)[C@@H](C)O)[C@@H](C)O)C(C)C)C(C)C)C(=O)N[C@@H](CCC(=O)O)C(=O)N[C@@H](Cc1c[nH]c2ccccc12)C(=O)N[C@@H](CC(C)C)C(=O)N[C@H](C(=O)N[C@@H](CCC(=O)O)C(=O)N[C@@H](CCCCN)C(=O)N[C@H](C(=O)N[C@@H](CCCCN)C(=O)N[C@@H](CCC(=O)O)C(=O)N[C@@H](CCCCN)C(=O)N[C@@H](CC(C)C)C(N)=O)C(C)C)C(C)C [Compound 112] (H-H[Aib]EGTFTSDVSSYLEGEAVKEFIEWLVEKVKEKL-NH2) | 119 | – | – | –
2 | 0.076 | – | H-HGEGTFTSDVSSYLEEEAVKEFIAWLVEKVKEKL-NH2 [Compound 111, [Gly8,Glu22,Glu23,Val25,Glu34,Lys35,Val36,Lys37]-GLP-1-(7-37)-peptidyl-Glu-Lys-Leu amide] | 117 | – | – | –
3 | – | 0.157 | CC[C@H](C)[C@H](NC(=O)[C@H](Cc1ccccc1)NC(=O)[C@H](CCC(=O)O)NC(=O)[C@H](CCCCN)NC(=O)[C@@H](NC(=O)[C@H](C)NC(=O)[C@H](CCC(=O)O)NC(=O)CNC(=O)[C@H](CCC(=O)O)NC(=O)[C@H](CC(C)C)NC(=O)[C@H](Cc1ccc(O)cc1)NC(=O)[C@H](CO)NC(=O)[C@H](CO)NC(=O)[C@@H](NC(=O)[C@H](CC(=O)O)NC(=O)[C@H](CO)NC(=O)[C@@H](NC(=O)[C@H](Cc1ccccc1)NC(=O)[C@@H](NC(=O)CNC(=O)[C@H](CCC(=O)O)NC(=O)C(C)(C)NC(=O)[C@@H](N)Cc1c[nH]cn1)[C@@H](C)O)[C@@H](C)O)C(C)C)C(C)C)C(=O)N[C@@H](C)C(=O)N[C@@H](Cc1c[nH]c2ccccc12)C(=O)N[C@@H](CC(C)C)C(=O)N[C@H](C(=O)N[C@@H](CCC(=O)O)C(=O)N[C@@H](CCCCN)C(=O)NC(C)(C)C(=O)N[C@@H](CCCCN)C(=O)N[C@@H](CCC(=O)O)C(=O)N[C@@H](Cc1ccccc1)C(=O)N[C@@H](CC(C)C)C(=O)N[C@@H](CCC(=O)O)C(=O)N[C@@H](CCCCN)C(N)=O)C(C)C [Compound 70, [Aib8,Glu23,Val25,Glu34,Lys35,Aib36,Lys37]-GLP-1-(7-37)-peptidyl-Glu-Phe-Leu-Glu-Lys amide] | 91 | – | – | –

The next lines start with the molecule.

Row | Molecule | EC50 (human GLP-1 receptor; [2]) [nM] | EC50 (human GLP-1 receptor; [3]) [nM] | 4 h Cholesterol Efflux Emax [1] [%] | EC50 [1] [nM] | EC50 (human GLP-1 receptor; [4]) [nM] | EC50 (human GLP-1 receptor; GLP1R CRE luc 0% HSA EC50 Mean Value) [nM]
4 | CC[C@H](C)[C@H](NC(=O)[C@H](Cc1ccccc1)NC(=O)[C@H](CCC(=O)O)NC(=O)[C@H](CCC(N)=O)NC(=O)[C@@H](NC(=O)[C@H](C)NC(=O)[C@H](CCC(=O)O)NC(=O)CNC(=O)[C@H](CCC(=O)O)NC(=O)[C@H](CC(C)C)NC(=O)[C@H](Cc1ccc(O)cc1)NC(=O)[C@H](CO)NC(=O)[C@H](CO)NC(=O)[C@@H](NC(=O)[C@H](CC(=O)O)NC(=O)[C@H](CO)NC(=O)[C@@H](NC(=O)[C@H](Cc1ccccc1)NC(=O)[C@@H](NC(=O)CNC(=O)[C@H](CCC(=O)O)NC(=O)C(C)(C)NC(=O)[C@@H](N)Cc1c[nH]cn1)[C@@H](C)O)[C@@H](C)O)C(C)C)C(C)C)C(=O)N[C@@H](C)C(=O)N[C@@H](Cc1c[nH]c2ccccc12)C(=O)N[C@@H](CC(C)C)C(=O)N[C@H](C(=O)N[C@@H](CCC(=O)O)C(=O)N[C@@H](C)C(=O)N[C@H](C(=O)N[C@@H](C)C(=O)N[C@@H](CCC(=O)O)C(=O)N[C@@H](Cc1ccccc1)C(=O)N[C@@H](CC(C)C)C(N)=O)C(C)C)C(C)C [Compound 94] (H-H[Aib]EGTFTSDVSSYLEGEAVQEFIAWLVEAVAEFL-NH2) | 0.273 | – | 74 | – | – | –
5 | H-HAEGTFTSDVSSYLEGQAAKEFIAWLVEKVKEFLDK-OH [Compound 129, [Glu34,Lys35,Val36,Lys37]-GLP-1-(7-37)-peptidyl-Glu-Phe-Leu-Asp-Lys] | 0.012 | 0.045 | 111 | – | – | –
6 | CC[C@H](C)[C@H](NC(=O)[C@H](Cc1ccccc1)NC(=O)[C@H](CCC(=O)O)NC(=O)[C@H](CCCCN)NC(=O)[C@@H](NC(=O)[C@H](C)NC(=O)[C@H](CCC(=O)O)NC(=O)CNC(=O)[C@H](CCC(=O)O)NC(=O)[C@H](CC(C)C)NC(=O)[C@H](Cc1ccc(O)cc1)NC(=O)[C@H](CO)NC(=O)[C@H](CO)NC(=O)[C@@H](NC(=O)[C@H](CC(=O)O)NC(=O)[C@H](CO)NC(=O)[C@@H](NC(=O)[C@H](Cc1ccccc1)NC(=O)[C@@H](NC(=O)CNC(=O)[C@H](CCC(=O)O)NC(=O)C(C)(C)NC(=O)[C@@H](N)Cc1c[nH]cn1)[C@@H](C)O)[C@@H](C)O)C(C)C)C(C)C)C(=O)N[C@@H](C)C(=O)N[C@@H](Cc1c[nH]cn1)C(=O)N[C@@H](CC(C)C)C(=O)N[C@H](C(=O)N[C@@H](CCC(=O)O)C(=O)N[C@@H](CCCCN)C(=O)NC(C)(C)C(=O)N[C@@H](CCCCN)C(=O)N[C@@H](CCC(=O)O)C(=O)N[C@@H](Cc1ccccc1)C(=O)N[C@@H](CC(C)C)C(N)=O)C(C)C [Compound 17, [Aib8,Glu23,Val25,His31,Glu34,Lys35,Aib36,Lys37]-GLP-1-(7-37)-peptidyl-Glu-Phe-Leu amide] (H-H[Aib]EGTFTSDVSSYLEGEAVKEFIAHLVEK[Aib]KEFL-NH2) | 0.02 | – | 102 | – | – | –
7 | CC[C@H](C)[C@H](NC(=O)[C@H](Cc1ccccc1)NC(=O)[C@H](CCC(=O)O)NC(=O)[C@H](CCCCN)NC(=O)[C@@H](NC(=O)[C@H](C)NC(=O)[C@H](CCC(=O)O)NC(=O)CNC(=O)[C@H](CCC(=O)O)NC(=O)[C@H](CC(C)C)NC(=O)[C@H](Cc1ccc(O)cc1)NC(=O)[C@H](CO)NC(=O)[C@H](CO)NC(=O)[C@@H](NC(=O)[C@H](CC(=O)O)NC(=O)[C@H](CO)NC(=O)[C@@H](NC(=O)[C@H](CC(C)C)NC(=O)[C@@H](NC(=O)CNC(=O)[C@H](CC(=O)O)NC(=O)[C@H](C)NC(=O)[C@@H](N)Cc1c[nH]cn1)[C@@H](C)O)[C@@H](C)O)[C@@H](C)CC)C(C)C)C(=O)N[C@@H](C)C(=O)N[C@@H](Cc1c[nH]c2ccccc12)C(=O)N[C@@H](CC(C)C)C(=O)N[C@H](C(=O)N[C@@H](CCC(=O)O)C(=O)N[C@@H](CCCCN)C(=O)NC(C)(C)C(=O)N[C@@H](CCCCN)C(=O)N[C@@H](CCC(=O)O)C(=O)N[C@@H](Cc1ccccc1)C(=O)N[C@@H](CC(C)C)C(N)=O)C(C)C [Compound 14, [Asp9,Leu12,Ile16,Glu23,Val25,Glu34,Lys35,Aib36,Lys37]-GLP-1-(7-37)-peptidyl-Glu-Phe-Leu amide] (H-HADGTLTSDISSYLEGEAVKEFIAWLVEK[Aib]KEFL-NH2; N-terminus assumed) | – | – | – | 300 | 0.062 | –
8 | CC[C@H](C)[C@H](NC(=O)[C@H](Cc1ccccc1)NC(=O)[C@H](CCC(=O)O)NC(=O)[C@H](CCCNC(=N)N)NC(=O)[C@@H](NC(=O)[C@H](C)NC(=O)[C@H](CCC(=O)O)NC(=O)CNC(=O)[C@H](CCC(=O)O)NC(=O)[C@H](CC(C)C)NC(=O)[C@H](Cc1ccc(O)cc1)NC(=O)[C@H](CO)NC(=O)[C@H](CO)NC(=O)[C@@H](NC(=O)[C@H](CC(=O)O)NC(=O)[C@H](CO)NC(=O)[C@@H](NC(=O)[C@H](Cc1ccccc1)NC(=O)[C@@H](NC(=O)CNC(=O)[C@H](CCC(=O)O)NC(=O)C(C)(C)NC(=O)[C@@H](N)Cc1c[nH]cn1)[C@@H](C)O)[C@@H](C)O)C(C)C)C(C)C)C(=O)N[C@@H](C)C(=O)N[C@@H](Cc1c[nH]c2ccccc12)C(=O)N[C@@H](CC(C)C)C(=O)N[C@H](C(=O)N[C@@H](CCC(=O)O)C(=O)N[C@@H](CCCCN)C(=O)NC(C)(C)C(=O)N[C@@H](CCCCN)C(=O)N[C@@H](CCC(=O)O)C(=O)N[C@@H](Cc1ccccc1)C(=O)N[C@@H](CC(C)C)C(N)=O)C(C)C [Compound 81] (H-H[Aib]EGTFTSDVSSYLEGEAVREFIAWLVEK[Aib]KEFL-NH2) | 0.028 | 0.076 | 112 | – | – | –
9 | CC(C)C[C@H](NC(=O)[C@H](Cc1ccccc1)NC(=O)[C@H](CCC(=O)O)NC(=O)[C@H](CCCCN)NC(=O)C(C)(C)NC(=O)[C@H](CCCCN)NC(=O)[C@H](CCC(=O)O)NC(=O)[C@@H](NC(=O)[C@H](CC(C)C)NC(=O)[C@H](Cc1c[nH]c2ccccc12)NC(=O)[C@H](C)NC(=O)[C@@H](NC(=O)[C@H](Cc1ccccc1)NC(=O)[C@H](CCC(=O)O)NC(=O)[C@H](CCCCN)NC(=O)[C@@H](NC(=O)[C@H](C)NC(=O)[C@H](CCC(=O)O)NC(=O)CNC(=O)[C@H](CCC(=O)O)NC(=O)[C@H](CC(C)C)NC(=O)[C@H](Cc1ccc(O)cc1)NC(=O)[C@H](CO)NC(=O)[C@H](CO)NC(=O)[C@@H](NC(=O)[C@H](CC(=O)O)NC(=O)[C@H](CO)NC(=O)[C@@H](NC(=O)[C@H](Cc1ccccc1)NC(=O)[C@@H](NC(=O)CNC(=O)[C@H](CCC(=O)O)NC(=O)C(C)(C)NC(=O)[C@@H](N)Cc1c[nH]cn1)[C@@H](C)O)[C@@H](C)O)C(C)C)C(C)C)C(C)C)C(C)C)C(N)=O [Compound 82, [Aib8,Glu23,Val25,Val29,Glu34,Lys35,Aib36,Lys37]-GLP-1-(7-37)-peptidyl-Glu-Phe-Leu amide] (H-H[Aib]EGTFTSDVSSYLEGEAVKEFVAWLVEK[Aib]KEFL-NH2; N-terminus assumed) | – | – | 120 | 690 | 0.036 | 0.111
